Assay results reported in patent US20210214285A1, “EMULSION FOR TREATING UREA-CONTAINING FERTILIZERS” (EUROCHEM AGRO GMBH, priority 2018, published 2021).
Converted amounts (≈) assume the structure as drawn.

How the values were obtained:
[1] = at 20° C.; cited from earlier work
[2] = Comparative experiment: urea treated with DMPP/NBPT emulsion, degradation on storage (HPLC); details: for amount broken down: after a period of 7 days
[3] = Storage stability test of treated urea fertilizers (NBPT and DMPSA content over time); type: physicochemical; details: urea coated with DMPSA/NBPT emulsion (invention, FIG. 2) versus sequential application (comparative, FIG. 1); stored 90 days under standard conditions in a climate-controlled cabinet
Experimental: 20 kg of granulated urea was initially charged in a mixer. 35 g of the NBPT formulation and 79 g of DMPSA formulation were introduced into a spray bottle and shaken until a homogeneous emulsion had formed. The formulation emulsion was immediately sprayed onto the urea, with intermittent shaking of the spray bottle in order to prevent settling of the emulsion. The mixer was operated for a further 10 minutes until a homogeneous product was obtained.
In a comparative experiment, identical amounts of DMPSA and NBPT were applied to urea. DMPSA formulation was applied first to the urea by the method described above, and the NBPT formulation was applied after drying.
Storage stability tests were conducted for both the urea fertilizers treated. They were stored for a period of 90 days under standard conditions in a climate-controlled cabinet. The NBPT and DMPSA content was determined at time intervals.

Row | SMILES | water solubility [1] | degradation characteristics [2] | amount broken down [2] | decrease in NBPT and DMPSA content over time [3]
1 | CCCCCC(CO)CCC (stereo not shown) [2-Propylheptan-1-ol] | 58 µg/mL (≈ 366 µM) | – | – | –
2 | Cc1c[nH]nc1C.O=P(O)(O)O [DMPP, 3,4-dimethylpyrazole phosphate, reference compound] | – | rapid degradation characteristics | about 50% | –
3 | Cc1cn(C(CC(=O)O)C(=O)O)nc1C (stereo not shown) [DMPSA, 2-(N-3,4-dimethylpyrazole)succinic acid] | – | – | – | significantly smaller
4 | CCCCNP(N)(N)=S [NBPT, N-(n-butyl)-thiophosphoric acid triamide] | – | rapid degradation characteristics | 100% | significantly smaller
